{"source": "paper PMC2409929", "about": "(British Journal of Cancer, 2004)", "origin": "cited, not measured here", "key": {"[1]": {"system": "topo-isomerase I", "set-up": "method as in Slatter et al, 1997", "details": "in vitro models; ref Slatter et al, 1997; cited from earlier work"}, "[2]": {"details": "N=6, mean±s.d., ref 16 (Herben et al, 1999), cited from earlier work"}, "[3]": {"details": "after irinotecan 140 mg m^−2: 10 mg m^−2 as 14-day prolonged infusions"}}, "note": "Marks after values point to notes of the source that are not given here."}
{"smiles": "CCc1c2c(nc3ccc(O)cc13)-c1cc3c(c(=O)n1C2)COC(=O)[C@]3(O)CC", "note": "[SN-38, 7-ethyl-10-hydroxycamptothecin]", "values": [{"measurement": "Potency as topo-isomerase I inhibitor relative to parent compound (irinotecan)", "setting": "[1]", "result": "100–1000 times"}, {"measurement": "Metabolic ratio (SN-38 AUC over irinotecan AUC)", "setting": "[2]; 140 mg m^−2: 10 mg m^−2 irinotecan as 14-day prolonged infusions", "result": "0.12±0.02 ^b"}, {"measurement": "SN-38 AUC", "setting": "[2]; [3]", "result": "1.4 ± 0.3", "unit": "µM·h"}, {"measurement": "SN-38 AUCc (AUC per cycle)", "setting": "[2]; [3]", "result": "4.2 ± 0.9", "unit": "µM·h"}]}
